# Experimental data reported in ChEMBL document CHEMBL2424654, “Optimization of enzyme-based ultrasonic/microwave-assisted extraction and evaluation of antioxidant activity of orcinol glucoside from the rhizomes of Curculigo orchioides Gaertn” (Med Chem Res, 2013).
# The source made the active and inactive calls. The calls are words filed in the database; no cut-off is given here.
# How the values were obtained:
# Assay type in all cases: functional
# [1] = Antioxidant activity assessed as superoxide anion radical scavenging activity at 2 mg/ml
# [2] = Antioxidant activity assessed as hydroxyl radical scavenging activity
# [3] = tested on: Radical scavenging activity; assay: Antioxidant activity assessed as DPPH radical scavenging activity
# [4] = tested on: Radical scavenging activity; assay: Antioxidant activity assessed as DPPH radical scavenging activity at 2 mg/ml
# [5] = Antioxidant activity assessed as reducing power at 0.5 to 2 mg/ml
# [6] = Antioxidant activity assessed as hydroxyl radical scavenging activity at 2 mg/ml
smiles,measurement,setting,value
Cc1cc(O)cc(O[C@@H]2O[C@H](CO)[C@@H](O)[C@H](O)[C@H]2O)c1,Activity,[1],70.2%
same,Activity,[2],Dose-dependent effect
same,IC50,[3],900 µg/mL
same,Activity,[4],69.3%
same,Activity,[5],Active
same,Activity,[6],77.5%
